According to patent US7169932B2 (priority 2001, dated 2007):
pEC50, pKi: −log10 of the molar value. Read-outs that look alike come from different tables or passages of the source.

Tests used:
HIV-1 = assay: Cytopathic Effect (CPE) Inhibition Assay (XTT dye reduction); format: cell-based; conditions: for EC50: Human immunodeficiency virus 1, 144 h, read-out: Ave CPE EC50 (mM); for pEC50: Human immunodeficiency virus 1
Experimental: T-cell lines, CEM-SS, and MT-2, and viruses HIV-1 RF and HIV-1 NL4–3 (pNL4–3) were obtained from the National Institutes of Health (AIDS Research and Reference Reagent Program, Bethesda, Md.).
The ability of compounds to protect cells against HIV infection was measured by the […] dye reduction method, essentially as described (See Pauwels, R. Balzarini, J. Baba, M. Snoeck, R. Schols, D. Herdewijn, P. Desmyter, J. and De Clercq, E. 1988, “Rapid and automated tetrazolium-based colorimetric assay for the detection of anti-HIV compounds,”. J Virol Methods., 20: 309–321 and Weislow, O. S. Kiser, R. Fine, D. L. Bader, J. Shoemaker, R. H. and Boyd, M. R. 1989. “New soluble-formazan assay for HIV-1 cytopathic effects: application to high-flux screening of synthetic and natural products for AIDS-antiviral activity”. J. Natl. Cancer Inst. 81:577–586). Subject cells were infected with test virus at an moi of 0.025 to 0.819 or mock infected with medium only and added at 2×10^4 cells per well into 96 well plates containing half-log dilutions of test compounds. Six days later, 50 μl of XTT (1 mg/ml XTT tetrazolium, […] phenazine methosulfate) was added to the wells and the plate was reincubated for four hours. Viability, as determined by the amount of XTT formazan produced, was quantified spectrophotometrically by absorbance at 450 nm. Data from CPE assays were expressed as the percent of formazan produced in compound-treated cells compared to formazan produced in wells of uninfected, compound-free cells. The fifty percent effective concentration (EC50) was calculated as the concentration of compound that effected an increase in the percentage of formazan production in infected, compound-treated cells to 50% of that produced by uninfected, compound-free cells. The 50% cytotoxicity concentration (CC50) was calculated as the concentration of compound that decreased the percentage of formazan produced in uninfected, compound-treated cells to 50% of that produced in uninfected, compound-free cells. The therapeutic index was calculated by dividing the cytotoxicity (CC50) by the antiviral activity (EC50).

HIV-1 protease (Q7S) = target: T1, HIV-1 protease (Q7S) (Human immunodeficiency virus type 1 group M subtype B, UniProt P04585, Q495S); assay: HIV-1 Protease RET Assay; format: biochemical; conditions: for Ki: Ave. Ki (nM), RET assay, Q7S enzyme, pH 4.8, 37 C; for pKi: Ki, table of drawn compounds, unit inferred
T1 construct: made in house
Experimental: Ki's for the inhibitors of HIV-1 protease were determined using a resonance energy transfer (RET) assay. […] This enzyme is first partially purified as inclusion bodies from cell lysate. It is then solublized in 8M urea and passed through a Q-Sepharose column (Pharmacia) for further purification. To refold this protein, samples containing Q7S is dialyzed into 50 mM sodium phosphate pH 7.0, 50 mM NaCl, 10 mM DTT, and 10% glycerol.
The commercially available peptide substrate (Molecular Probes Cat. # H-2930) RE(EDANS)SQNYPIVQK(DABCYL)R is used to assess activity and Ki's. This peptide is cleaved quantitatively by HIV-1 Pr at the Tyr-Pro bond. The EDANS fluorophore absorbs at 340 nm and emits at 490 nm. The reaction is carried out in a 96 well plate in a total volume of 100 μL and is run for 12 minutes at 37 C under steady-state conditions with 5 μM substrate and 2 nM active dimer enzyme concentration. The literature value Km for this substrate and enzyme is 103+/−8 μM (See Matayoshi, et al., “Novel Fluorogenic Substrates for Assaying Retroviral Proteases by Resonance Energy Transfer,” Science 247, 954 (1990)). The buffer for this reaction is 0.1M sodium acetate pH 4.8, 1M NaCl, 1 mM EDTA, 5 mM dithiothreitol, 10% dimethyl sulfoxide and 1 mg/ml bovine serum albumin. Inhibition curves are fit using the Morrison tight binding equation.

Cc1c(O)cccc1C(=O)N[C@@H](Cc1ccccc1)[C@H](O)C(=O)N1CSC(C)(C)[C@H]1C(=O)NC(C)(C)C#N [Example A41, (R)-3-((2S,3S)-2-Hydroxy-3-{[1-(3-hydroxy-2-methyl-phenyl)-methanoyl]-amino}-4-phenyl-butanoyl)-5,5-dimethyl-thiazolidine-4-carboxylic acid (1-cyano-1,1-dimethyl-methyl)-amide]
EC50 (HIV-1): 527 nM | Ki (HIV-1 protease (Q7S)): 1.6 nM

COc1cccc(CNC(=O)[C@H]2N(C(=O)[C@@H](O)[C@H](Cc3ccccc3)NC(=O)c3ccc(C)c(O)c3C)CSC2(C)C)c1
pEC50 (HIV-1): 5.88 | pKi (HIV-1 protease (Q7S)): 8.43

C=CCNC(=O)[C@H]1N(C(=O)[C@@H](O)[C@H](Cc2ccccc2)NC(=O)c2cccc(F)c2C)CSC1(C)C [Example B33, (R)-3-((2S,3S)-3-{[1-(3-Fluoro-2-methyl-phenyl)-methanoyl]-amino}-2-hydroxy-4-phenyl-butanoyl)-5,5-dimethyl-thiazolidine-4-carboxylic acid allylamide]
EC50 (HIV-1): 1290 nM | Ki (HIV-1 protease (Q7S)): 1.2 nM

Cc1ccccc1CNC(=O)[C@H]1N(C(=O)[C@@H](O)[C@H](Cc2ccccc2)NC(=O)c2c(C)nn(C)c2Cl)CSC1(C)C [Example B14, 3-{(S)-3-[(5-Chloro-1,3-dimethyl-1H-pyrazole-4-carbonyl)-amino]-2-hydroxy-4-phenyl-butyryl}-5,5-dimethyl-thiazolidine-4-carboxylic acid 2-methyl-benzylamide]
EC50 (HIV-1): 3050 nM | Ki (HIV-1 protease (Q7S)): 3.7 nM

Cc1ccccc1CNC(=O)[C@H]1N(C(=O)[C@@H](O)[C@H](Cc2ccccc2)NC(=O)c2cccc(F)c2C)CSC1(C)C [Example B36, (R)-3-((2S,3S)-3-{[1-(3-Fluoro-2-methyl-phenyl)-methanoyl]-amino}-2-hydroxy-4-phenyl-butanoyl)-5,5-dimethyl-thiazolidine-4-carboxylic acid 2-methyl-benzylamide]
EC50 (HIV-1): 615 nM | Ki (HIV-1 protease (Q7S)): < 0.1 nM

Cc1c(O)cccc1C(=O)N[C@@H](Cc1ccccc1)[C@H](O)C(=O)N1CSC(C)(C)[C@H]1C(=O)NCc1cc(F)c(F)cc1F
pEC50 (HIV-1): 6.54 | pKi (HIV-1 protease (Q7S)): 9.77

Cc1c(O)cccc1C(=O)N[C@@H](Cc1ccccc1)[C@H](O)C(=O)N1CSC(C)(C)[C@H]1C(=O)NC/C=C/C(F)(F)F [Example A40, (R)-3-((2S,3S)-2-Hydroxy-3-{[1-(3-hydroxy-2-methyl-phenyl)-methanoyl]-amino}-4-phenyl-butanoyl)-5,5-dimethyl-thiazolidine-4-carboxylic acid ((E)-4,4,4-trifluoro-but-2-enyl)-amide]
EC50 (HIV-1): 275 nM | Ki (HIV-1 protease (Q7S)): 1.2 nM

Cc1c(O)cccc1C(=O)N[C@@H](Cc1ccccc1)[C@H](O)C(=O)N1CSC(C)(C)[C@H]1C(=O)NCc1ccc(OC(F)(F)F)cc1 [Example A47, (R)-3-((2S,3S)-2-Hydroxy-3-{[1-(3-hydroxy-2-methyl-phenyl)-methanoyl]-amino}-4-phenyl-butanoyl)-5,5-dimethyl-thiazolidine-4-carboxylic acid 4-trifluoromethoxy-benzylamide]
EC50 (HIV-1): 1810 nM | Ki (HIV-1 protease (Q7S)): 2.3 nM

Cc1ccccc1CNC(=O)[C@H]1N(C(=O)[C@@H](O)[C@H](Cc2ccccc2)NC(=O)c2cccc(F)c2C)COC1(C)C [Example C11, (S)-3-((2S,3S)-3-{[1-(3-Fluoro-2-methyl-phenyl)-methanoyl]-amino}-2-hydroxy-4-phenyl-butanoyl)-5,5-dimethyl-oxazolidine-4-carboxylic acid 2-methyl-benzylamide]
EC50 (HIV-1): 1560 nM | Ki (HIV-1 protease (Q7S)): 1.1 nM

Cc1cccc(CNC(=O)[C@H]2N(C(=O)[C@@H](O)[C@H](Cc3ccccc3)NC(=O)c3cccc(O)c3C)CSC2(C)C)c1
pEC50 (HIV-1): 7.12 | pKi (HIV-1 protease (Q7S)): 8.82

Cc1ccccc1CNC(=O)[C@H]1N(C(=O)[C@@H](O)[C@H](Cc2ccccc2)NC(=O)c2cc(Cl)on2)CSC1(C)C [Example B4, 5-Chloro-isoxazole-3-carboxylic acid {(1S,2S)-1-benzyl-3-[(R)-5,5-dimethyl-4-(2-methyl-benzylcarbamoyl)-thiazolidin-3-yl]-2-hydroxy-3-oxo-propyl}-amide]
EC50 (HIV-1): 551 nM | Ki (HIV-1 protease (Q7S)): 1.7 nM

CCC/C=C/CNC(=O)[C@H]1N(C(=O)[C@@H](O)[C@H](Cc2ccccc2)NC(=O)c2cccc(O)c2C)CSC1(C)C
pEC50 (HIV-1): 5.85 | pKi (HIV-1 protease (Q7S)): 8.59

Cc1c(O)cccc1C(=O)N[C@@H](Cc1ccccc1)[C@H](O)C(=O)N1CSC(C)(C)[C@H]1C(=O)NCCc1ccccc1 [Example A19, (R)-3-((2S,3S)-2-Hydroxy-3-{[1-(3-hydroxy-2-methyl-phenyl)-methanoyl]-amino}-4-phenyl-butanoyl)-5,5-dimethyl-thiazolidine-4-carboxylic acid phenethyl-amide]
EC50 (HIV-1): 442 nM | Ki (HIV-1 protease (Q7S)): 10 nM

COc1ccccc1C(=O)N[C@@H](Cc1ccccc1)[C@H](O)C(=O)N1CSC(C)(C)[C@H]1C(=O)NCc1ccccc1C
pEC50 (HIV-1): 5.83 | pKi (HIV-1 protease (Q7S)): 8.68

CC(=O)Nc1cccc(CNC(=O)[C@H]2N(C(=O)[C@@H](O)[C@H](Cc3ccccc3)NC(=O)c3cccc(O)c3C)CSC2(C)C)c1 [Example A33, (R)-3-((2S,3S)-2-Hydroxy-3-{[1-(3-hydroxy-2-methyl-phenyl)-methanoyl]-amino}-4-phenyl-butanoyl)-5,5-dimethyl-thiazolidine-4-carboxylic acid 3-acetylamino-benzylamide]
EC50 (HIV-1): 577 nM | Ki (HIV-1 protease (Q7S)): < 0.1 nM

Cn1cccc1C(=O)N[C@@H](Cc1ccccc1)[C@H](O)C(=O)N1CSC(C)(C)[C@H]1C(=O)NCc1ccccc1C(F)(F)F [Example B26, 3-{2-Hydroxy-3-[(1-methyl-1H-pyrrole-2-carbonyl)-amino]-4-phenyl-butyryl}-5,5-dimethyl-thiazolidine-4-carboxylic acid 2-trifluoromethyl-benzylamide]
EC50 (HIV-1): 1710 nM | Ki (HIV-1 protease (Q7S)): 2.9 nM

Cc1ccccc1CNC(=O)[C@H]1N(C(=O)[C@@H](O)[C@H](Cc2ccccc2)NC(=O)c2cccc(N)n2)CSC1(C)C [Example B40, 6-Amino-pyridine-2-carboxylic acid {(1S,2S)-1-benzyl-3-[(R)-5,5-dimethyl-4-(2-methyl-benzylcarbamoyl)-thiazolidin-3-yl]-2-hydroxy-3-oxo-propyl}-amide]
EC50 (HIV-1): 1400 nM | Ki (HIV-1 protease (Q7S)): 2.8 nM

C=CCN(C)C(=O)[C@H]1N(C(=O)[C@@H](O)[C@H](Cc2ccccc2)NC(=O)c2ccno2)CSC1(C)C
pEC50 (HIV-1): 5.31 | pKi (HIV-1 protease (Q7S)): 7.61

Cc1ccc(CNC(=O)[C@H]2N(C(=O)[C@@H](O)[C@H](Cc3ccccc3)NC(=O)c3cccc(O)c3C)CSC2(C)C)cc1
pEC50 (HIV-1): 6.85 | pKi (HIV-1 protease (Q7S)): 9.14

Cc1c(Cl)cccc1CNC(=O)[C@H]1N(C(=O)[C@@H](O)[C@H](Cc2ccccc2)NC(=O)c2cccc(O)c2C)CSC1(C)C
pEC50 (HIV-1): 6.95 | pKi (HIV-1 protease (Q7S)): 9.70

Cc1ccccc1CNC(=O)[C@H]1N(C(=O)[C@@H](O)[C@H](Cc2ccccc2)NC(=O)c2ccccc2Cl)CSC1(C)C
pEC50 (HIV-1): 6.23 | pKi (HIV-1 protease (Q7S)): 9.70

Cc1ccccc1CNC(=O)[C@H]1N(C(=O)[C@@H](O)[C@H](Cc2ccccc2)NC(=O)c2csc(N)n2)CSC1(C)C
pEC50 (HIV-1): 5.86 | pKi (HIV-1 protease (Q7S)): 8.64

Cc1cc(C(=O)N[C@@H](Cc2ccccc2)[C@H](O)C(=O)N2CSC(C)(C)[C@H]2C(=O)NCc2ccccc2C)n[nH]1
pEC50 (HIV-1): 5.52 | pKi (HIV-1 protease (Q7S)): 7.71

COc1ccc(CNC(=O)[C@H]2N(C(=O)[C@@H](O)[C@H](Cc3ccccc3)NC(=O)c3cccc(O)c3C)CSC2(C)C)cc1 [Example A6, (R)-3-((2S,3S)-2-Hydroxy-3-{[1-(3-hydroxy-2-methyl-phenyl)-methanoyl]-amino}-4-phenyl-butanoyl)-5,5-dimethyl-thiazolidine-4-carboxylic acid 4-methoxy-benzylamide]
EC50 (HIV-1): 36 nM | Ki (HIV-1 protease (Q7S)): 0.22 nM
